Test results published in a melting point compilation (Tetko et al.; mined from patent text by program, amines drawn as free bases though some values may be those of a salt).

melting point [°C] | SMILES
90 | O=C(O)[C@H](Cc1ccc(O)cc1)NC(=O)C1(NC(=O)C2(S)CCCC2)CCCC1
150 to 151 | CCOC(=O)C1=C(C)NC(CCN(C)C)=C(C(=O)OCC)C1c1ccccc1/C=C/C(=O)OC(C)(C)C (centres undefined)
123 to 125 | O=S(=O)(Nc1ccc2c(OCc3ccc(-c4ccccc4)cc3F)cccc2c1)C(F)(F)F
199 to 201 | Nc1ccc(-c2ccncc2)nn1
175 to 176 | COc1cccc2c1CCC[C@H]2NC(=O)c1cccc(Cl)c1O
65 | COc1cc(CCl)c(OCCC(C)CCCC(C)C)cc1CCl (centres undefined)
104 to 105 | Cn1nc(N)nc1NCCCOc1ccc(CN2CCCCC2)cc1
75 to 78 | ON=C(CCC(CN1CCN(c2ccccn2)CC1)C(=NO)c1ccccc1)c1ccccc1 (centres undefined)
194 to 196 | Clc1ccc2c(c1)N(c1ncnc3cnccc13)CC2
120 to 122 | CCCN(Cc1ccc(-c2ccccc2-c2nnn[nH]2)cc1)c1nc(C)nnc1C(=O)OCC
69 to 71 | COc1c(C(C)(C)C)cc(C(C)=O)c(O)c1Br
92 to 95 | COCC1CN(c2c(F)cc3c(=O)c(C(=O)O)cn([C@@H]4C[C@@H]4F)c3c2OC)CCN1 (some centres undefined)
242 to 244 | O=S1(=O)N=CN(C2CC2)c2ccc(Br)cc21
197 to 199 | COc1ccc(C(=C/C=C/C(=O)Nc2cccc3cnccc23)c2ccc(OC)cc2)cc1
205 to 207 | Cc1ccccc1C1CC(=O)c2c(C)n[nH]c2C1 (centres undefined)
109 | O=C1CC[C@H](COC(c2ccccc2)(c2ccccc2)c2ccccc2)N1CCCc1ccccc1

melting point [°C] | SMILES
227 to 228 | O=C1NC(C(=O)N2CCN3C(=O)OC(c4ccccc4)(c4ccccc4)C3C2)c2ccccc21 (centres undefined)
174 | CCCn1c(=O)c2c(nc(/C=C/c3ccc(OCC)c(OCC)c3)n2C)n(CCC)c1=O
135 | Cc1ccccc1N1CCN(CCn2c(=N)sc3cc(OC(F)(F)F)ccc32)CC1
260 to 262 | CCCCc1ncc(Sc2ccccc2C(=O)O)n1Cc1ccc(C(=O)O)cc1
126 to 127 | O=C(O)CS(=O)(=O)Nc1c(F)cc(F)cc1F
120 to 122 | c1ccc2c(c1)oc1nnccc12
173 | CCc1c(C)oc(-c2ccc(S(C)(=O)=O)cc2)c(Oc2ccc(F)cc2F)c1=O
125 | C=Cc1ccc2nnn(OS(=O)(=O)c3ccc(Cl)cc3)c2c1
101 to 102 | CC(=CS(N)(=O)=O)c1ccccc1
54 to 60 | CCc1cc2c(SCc3ccccc3)ncnc2s1
228 to 230 | O=S(=O)(O)CCCCCCN1CCN(Cc2ccccc2)CC1
125 to 127 | COC(CN(C)C(=O)Nc1nnc(C(C)Oc2ccc(Cl)cc2Cl)s1)OC (centres undefined)
83 to 84 | COC(=O)CC1(C)C(=O)N(C)c2ccc(OC)cc21 (centres undefined)
122 to 123 | COc1cccc(-c2csc(-c3cccc([N+](=O)[O-])c3)n2)c1
215 to 217 | CCCn1c(COCC)nc2c(N)nc3cc(OC4CCN(S(C)(=O)=O)CC4)ccc3c21

More lines, now with the values behind:

SMILES | melting point [°C]
Cc1nc(-c2cccc(Cl)c2)c2cc(C(O)(c3ccc(Cl)cc3)c3cncn3C)ccc2n1 (centres undefined) | 223
CCCCCCCCCCCCCCCCCCOc1cn(CCC)c(CO)cc1=O | 120 to 121
O=S(=O)(Cl)CCCCCCCc1ccc(OCc2ccccc2)cc1 | 33 to 35
C=CCOC(=O)c1c(C)nc2c(cnn2CCC(C)CC)c1N (centres undefined) | 85 to 86
COC(=O)c1ccc(N=Cc2ccc(OC)c(C34CC5CC(CC(C5)C3)C4)c2)cc1 | 180 to 182
Cn1c(=O)c2[nH]c(C3CCSC3)nc2n(C)c1=O (centres undefined) | 217 to 219
COC(=O)C1C(=O)Nc2cccc(C(F)(F)F)c2CC1c1ccc(OC)cc1 (centres undefined) | 214 to 216
CC(C)c1nc(-c2ccccc2Cc2ccccc2)cc(-c2ccc(F)cc2)c1CO | 122 to 124
COc1ccc(COc2cccc(N)c2N)cc1 | 127
CC(=O)OC1N=C(c2ccccc2)c2cc(Cl)ccc2-n2c1cnc2C (centres undefined) | 200 to 201
Oc1cc2cc(-c3c(F)cccc3F)sc2c(Cl)c1Cl | 161 to 162
CCOC(=O)c1cnc2nc(S(=O)(=O)Cl)nn2c1C | 65 to 69
COc1ccccc1N(CCN1CCC(C(=O)c2ccc(F)cc2)CC1)S(=O)(=O)c1cccnc1 | 126 to 128
O=C1C2CCCC2=Nc2ccccc2N1Cc1cccc2ccccc12 (centres undefined) | 145 to 147
CN(C)CC(=O)Nc1ccc2c(c1)C(=O)c1cc(NC(=O)CN(C)C)ccc1C2=O | 218
N#Cc1c(F)c(F)c(O)c(F)c1F | 128 to 129
O=C(N[C@H]1CC[C@H](CCN2CCC(c3cccc4c3CCO4)CC2)CC1)c1ccc2ncccc2c1 | 238
CCOC(=O)c1ccc(CNc2ccncc2[N+](=O)[O-])cc1 | 166 to 168
CC(C)[C@@H]1C[C@@H]([C@H](CC2CCCCC2)NC(=O)OC(C)(C)C)OC1=O | 114 to 116
Cc1ccc(C(=O)Nc2ccccc2C#N)c([N+](=O)[O-])c1 | 230 to 232
Cc1c(Cl)nn2cc(-c3ccc(F)cc3)nc2c1C | 172 to 174
CC(C)(C)c1ccc(N2C[C@@H](COS(C)(=O)=O)CC2=O)cc1 | 108 to 109
CC=Cc1cccc(Oc2ccccc2Cl)c1OC | 61 to 62

SMILES | melting point [°C]
CCC(CC)N(O)C(=O)Nc1ccc(C)c(NC(=O)N(O)C(CC)CC)c1 | 175 to 177
CC1(C)Cc2cc(C(=O)O)sc2C1 | 170 to 172
O=C(O)C(Cc1nnn[nH]1)NC(=O)C(CS)C(F)(F)F (centres undefined) | 158 to 161
C[C@@H](NC(=O)C1(C)CC(F)(F)C1)c1ccc(Br)cc1 | 120 to 122
CC(C)(C)c1ccc2[nH]c(=O)c(-c3nnn[nH]3)cc2c1 | 280 to 286
O=c1nc(NCc2ccccc2)sc2c([N+](=O)[O-])cc(C(F)(F)F)cc12 | 192 to 194
COc1cccc(CCc2c(CCNC(=O)CCCCC(=O)NCCc3ccc(NS(C)(=O)=O)cc3)ccc(OC)c2OC)c1 | 157 to 159
COc1ccc(-c2ccc(Cl)cc2C#N)cc1C=O | 187 to 189
COc1cc(OC)nc(C2(OC)OC(=O)c3c(Cl)cccc32)n1 (centres undefined) | 180 to 183
CCCCS(=O)(=O)NCCc1nc(-c2ccc(-c3ccccc3)cc2)c[nH]1 | 168
C#Cc1ccc(NC(=O)N[C@H](CCC)C(=O)Nc2ccc(N3CCOCC3=O)cc2)cc1 | 182
Cc1c(COc2cccc3c2CN(C2CCC(=O)NC2=O)C3=O)oc2ccccc12 (centres undefined) | 210 to 212
Brc1ccc2cc(SN3CCN(c4ccncc4)CC3)ccc2c1 | 200 to 202
O=C1CC(Cc2ccc(Cl)cc2)CN1 (centres undefined) | 95 to 98
Cc1ccc(-c2ccc3c(c2)C=C(C(=O)NC2CCN(CCC4CCCCC4)CC2)CCO3)cc1 | 193 to 196
CNC(=S)C1(c2ccc(Cl)nc2)CCCCC1=O (centres undefined) | 172 to 173
CC1(C)C=Cc2c(cc(O)c3c(=O)c4cc5ccccc5cc4[nH]c23)O1 | 225
CCCCNC(=O)Nc1ccc(SCC)cc1C(=O)NCC1CCN(C(c2ccccc2)c2ccccc2)CC1 | 159 to 160
NCCNC(=O)c1nc(Cl)c(N)nc1N | 173 to 174
CCOC(=O)C=Cc1ccc(OC)c(-c2cc3c(cc2OCCCCCC(=O)OC(C)(C)C)C(C)(C)CCC3(C)C)c1 | 130 to 132
Cc1cc(C)c(NCCC(N)=S)cc1C | 110 to 111
Fc1ccc2nc(-c3ccccc3)cc(Cl)c2c1 | 96 to 99
Cc1cc(NS(=O)(=O)c2ccccc2F)cc(C)c1S(=O)(=O)C[N+](=O)[O-] | 175 to 177

SMILES | melting point [°C]
CS(=O)(=O)c1ccc(C2=C(c3ccccc3)CCC2)cc1 | 136 to 137
CCCOCc1nc(C(C)(C)O)c(C(=O)O)n1Cc1ccc(-c2ccccc2-c2nnn[nH]2)cc1 | 166 to 168
COc1ccc2c(c1)C(c1ccc(N)cc1)=NN(C(=O)C1CC1)C(C)C2 (centres undefined) | 93 to 95
CCc1nc2c(C)nc(C)cc2n1-c1ccc(CCOC(=O)NS(=O)(=O)c2ccc(C)cc2)cc1 | 158
CCCCCCOc1ccc2c(COC)c(OCCCCCC)ccc2c1COC | 103 to 104
O=C(OI(OC(=O)C(F)(F)F)C(F)(F)C(F)(F)C(F)(F)C(F)(F)C(F)(F)C(F)(F)C(F)(F)C(F)(F)F)C(F)(F)F | 70 to 74
Cc1ccc(Nc2nnc(-c3cccc(OCc4ccccc4)c3)s2)cc1Cl | 211 to 212
COc1ccc(-n2cc(C(=O)O)cn2)cc1 | 235 to 237
COc1cc(Nc2ncnc3cc4cc(OCc5ccccc5)c(OC)cc4cc23)c(Cl)cc1Cl | 275 to 280
CC1COC2(c3ccccc3)c3cc(Cl)ccc3NC(=O)CN12 (centres undefined) | 84 to 98
COc1ccc(CNc2nc(N)n3nc(-c4ccco4)nc3n2)cc1 | 238 to 239
CCCCCCCCCCCCCCCCCCOc1ccc(C(=O)C(=O)OCC)cc1 | 46 to 48
COC(=O)n1nc2nc3n(c(=O)c2c1N)CCS3 | 200 to 203
COc1cc(C)cc(-c2n[nH]cc2-c2ccnc(SC)n2)c1 | 143
CNc1ncc2c(n1)N(C1CCC(C(=O)O)CC1)C(=O)N(c1c(F)c(OC)cc(OC)c1F)C2 (centres undefined) | 148
Cc1ncsc1CCOc1ccc(NC(=O)c2cc(F)cc(N3CCCCC3)c2)c2ccccc12 | 221 to 222
CC(C)n1nc(-c2cc(N)cnc2-c2ccccc2)ccc1=O | 147 to 148
COc1ccc(CN(C)CCC2CN(C)C(=S)c3cccnc3O2)cc1 (centres undefined) | 128 to 130
COc1nc2ccccc2c2c1ncn2CC(C)C | 111 to 114
Oc1c2c(nn1-c1nc3ccccc3s1)CCc1ccccc1-2 | 234 to 235
O=C(Nc1ccc(Oc2ccnc(N3CCC4(CC3)OCCO4)n2)c2ccccc12)c1cc(F)cc(N2CCOCC2)c1 | 115 to 117
O=C(O)CCCCN1C(=O)c2ccc([N+](=O)[O-])cc2C1=O | 172
